{"source": "patent US20150313829A1", "about": "“TOPICAL FORMULATIONS FOR THE PREVENTION AND TREATMENT OF ALOPECIA AND INHIBITION OF HAIR GROWTH” (UNIVERSIDADE FEDERAL DE MINAS GERAIS -UFMG, priority 2012, published 2015)", "origin": "cited, not measured here", "tested_on": "murine model of alopecia", "details": "WO 01/98325", "data": [{"substance": "Asp1-Arg2-VAL3-Tyr4-Ile5-His6-Pro7 [Ang-(1-7)]", "values": [{"measurement": "hair growth", "result": "induces hair growth"}, {"measurement": "number of mature follicles", "result": "increased the number of mature follicles"}]}]}
